Source: patent publication US8017585B2, “CXCR4 antagonist and use thereof” (priority 2002, dated 2011)
Bridge positions count the residues as written; N and C are the ends. Square brackets hold non-standard residues; d marks the D form. Peptide text beside a SMILES is read from it. * marks the point of attachment. 2Nal = N[C@@H](Cc1ccc2ccccc2c1)C(=O)O; Benzoyl(4-F) = O=C(c1ccc(F)cc1)*; Cit = NC(=O)NCCC[C@H](N)C(=O)O

How the values were obtained:
[1] = test system: human breast cancer MDA-MB-231 cells; assay: Inhibition of CXCL12-induced breast cancer cell migration (Transwell); format: cell-based; conditions: 10 nM of the antagonist; 100 nM CXCL12; 15 hours
Procedure: Transwell filter (polycarbonate filter, 8 μm diameter, Costar Company) was treated at 37° C. for 6 hours in 10 μg/mL fibronectin solution and air-dried. 100 nM of CXCL12 (R&D System Company) and 600 μL/well of buffer-A (0.1% bovine serum albumin, DMEM (GibcoBRL) containing 12 mM HEPES) containing the test compound were added to the lower chamber of the Transwell. The test compound and human breast cancer MDA-MB-231 cells (purchased from American Tissue Culture Collection), and 100 μL/well of buffer A containing 2×10^6 cells/mL were added to the upper chamber. […] Cutting off the filter part, adding 0.1 M sodium citrate/50% ethanol solution, and eluting crystal violet absorption at 550 nm was measured. […]
After 15 hours' incubation at 37° C. in 5% CO2 incubator, the upper surface of the filter was wiped and the cell was removed, and then the cell on the lower surface of the filter was fixed and stained with 25% methanol solution containing 0.5% crystal violet (Wako Pure Chemical Ind.), washed by distilled water and air-dried. Cutting off the filter part, adding 0.1 M sodium citrate/50% ethanol solution, and eluting crystal violet absorption at 550 nm was measured. […]

SUP-T1 cells = assay: Inhibition of CXCL12-induced T-cell derived leukemia cell migration (Transwell); format: cell-based, human; conditions: 10 nM of the antagonist; 30 nM CXCL12; 4 hours
Procedure: 30 nM of CXCL12 (R&D System Company) and 600 μL/well of buffer-A (0.1% bovine serum albumin, DMEM (GibcoBRL) containing 12 mM HEPES) containing the test compound were added to the lower chamber of Transwell filter (polycarbonate filter, 8 μm diameter, Costar Company). The test compound and human cell-derived leukemia SUP-T1 cells (purchased from American Tissue Culture Collection), and 100 μL/well of buffer A containing 2×10^6 cells/mL were added to the upper chamber. After 4 hours' incubation at 37° C. in 5% CO2 incubator, the number of the cells moved to the lower chamber was counted by Coulter counter. Control (−) indicates the migration when CXCL12 was not added. Control (+) indicates the migration when CXCL12 was added. By adding CXCL12, the migration of SUP-T1 cells was enhanced. This CXCL12-induced migration of SUP-T1 cells was inhibited by 10 nM of the antagonist, 4Fbenzoyl-TN-14003. From the foregoing, 4Fbenzoyl-TN-14003, by inhibiting the movement of T-cells at low concentrations, is considered to be useful as an inhibitory drug for chronic rheumatoid arthritis.

[2] = test system: Jurkat human T lymphocyte cell lines; conditions: read-out: IC50 value, inhibition of SDF-1α-induced Jurkat cell migration; SDF-1α 1 ng/mL; 4 hours
Procedure: RPMI-1640 and fetal calf serum (FCS) was purchased from BioWhittaker, penicillin-streptomycin solution, RPMI-1640 (without phenol red) and HEPES from Invitrogen, BSA from Sigma, and, human SDF-1α (CXCL12) from Genzyme. Jurkat human T lymphocyte cell lines were purchased from ATCC and incubated in RPMI-1640 10% FCS.
Using 24-wells Transwell (Costar, polycarbonate membrane, pore size 5 μm), migrating reaction was performed. 600 μL of SDF-1α (final concentration 1 ng/mL) was added to the lower layer of Transwell, 5×10^5 cells (200 μL) was added to the insert, and was reacted at 37° C. for 4 hours. The cells were pre-incubated with drugs at 37° C. for 30 minutes. The migrating reaction was made in RPMI-1640 culture media containing 20 mmol/L HEPES, 0.5% BSA. The cells migrated to the lower layer were recovered, and the number of the cells was counted by Coulter Counter. The inhibitory rate (%) against the migration by the drug of each concentration was calculated by the following formula, and IC50 value was calculated from such inhibitory rate.

N=C(N)NCCC[C@H](NC(=O)[C@@H]1CSSC[C@H](NC(=O)[C@H](Cc2ccc3ccccc3c2)NC(=O)[C@H](CCCNC(=N)N)NC(=O)[C@H](CCCNC(=N)N)NC(=O)c2ccc(F)cc2)C(=O)N[C@@H](Cc2ccc(O)cc2)C(=O)N[C@@H](CCCNC(N)=O)C(=O)N[C@@H](CCCCN)C(=O)N[C@H](CCCCN)C(=O)N2CCC[C@H]2C(=O)N[C@@H](Cc2ccc(O)cc2)C(=O)N[C@@H](CCCNC(=N)N)C(=O)N[C@@H](CCCNC(N)=O)C(=O)N1)C(N)=O [4F-benzoyl-TN14003, 4F-benzoyl-Arg-Arg-Nal-Cys-Tyr-Cit-Lys-DLys-Pro-Tyr-Arg-Cit-Cys-Arg-NH2] ({Benzoyl(4-F)}-RR[2Nal]CY[Cit]K[dK]PYR[Cit]CR-NH2; disulfide 4-13) was tested, and the “CXCL12-induced migration of MDA-MB-231 cells” value [1] was “inhibited”, the “CXCL12-induced migration of SUP-T1 cells” value (SUP-T1 cells) was “inhibited” and the IC50 [2] was 650 pM.
